Consider 24 compounds from patent publication US20230027929A1, “MrgprX2 Antagonists and Uses Thereof” (Dermira, Inc., priority 2019, published 2023).

In this assay the target is T1, hMrgpMRGPRX2 (Homo sapiens, UniProt Q96LB1).
T1 construct: expressed in transfected cells
T1 sequence (Q96LB1 1-330): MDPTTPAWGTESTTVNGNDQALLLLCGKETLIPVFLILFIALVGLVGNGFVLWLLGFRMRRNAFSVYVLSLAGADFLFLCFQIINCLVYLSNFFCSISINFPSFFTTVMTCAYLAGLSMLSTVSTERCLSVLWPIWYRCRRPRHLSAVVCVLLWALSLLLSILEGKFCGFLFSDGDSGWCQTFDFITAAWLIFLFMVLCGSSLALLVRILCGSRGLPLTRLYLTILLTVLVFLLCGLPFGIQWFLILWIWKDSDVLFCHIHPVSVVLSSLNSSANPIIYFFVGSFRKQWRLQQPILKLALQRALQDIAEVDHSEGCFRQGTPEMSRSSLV
In words: FLIPR intracellular calcium mobilization, antagonist activity in recombinant hMrgpMRGPRX2 expressing cells. The assay is classed as cell-based. The following applies: read-out: Human MrgprX2 Antagonist pIC50 (converted). The method in brief: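 Antagonist activity was read as inhibition of intracellular calcium mobilization (FLIPR) in recombinant cells expressing human MrgprX2. Potency was also checked in LAD-2 human mast cells with endogenous receptor, and orthologue activity in cells expressing mouse MrgprB2, mouse MrgprA1, and gerbil, Chinese hamster and cynomolgus orthologues.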
For orientation: Calcium assays in cells follow changes in intracellular calcium, usually with a dye or a luminescent sensor.
Regarding `CCN(C[C@@H](O)C(F)(F)F)C(=O)Nc1cnc(Oc2ccccc2F)cn1` [Compound E248], the IC50 was 8.51 nM.

For `CCN(C[C@@H](O)C(F)(F)F)C(=O)Nc1cnc(Oc2ccc(F)cc2F)cn1` [Compound E249], the IC50 was 1.62 nM.

Take `CN(C[C@@](C)(O)C(F)(F)F)C(=O)Nc1cnc(Oc2cc(F)ccc2F)cn1` [Compound E250]: the IC50 was 2.57 nM.

Turning to `CCN(C[C@@H](O)C(F)(F)F)C(=O)Nc1cnc(Oc2cccc(F)c2C#N)cn1` [Compound E251], the IC50 was 26.9 nM.

On to `CCN(C[C@@H](O)C(F)(F)F)C(=O)Nc1cnc(Oc2ccc(F)cc2)cn1` [Compound E252], for which the IC50 was 589 nM.

For `CN(C[C@@](C)(O)C(F)(F)F)C(=O)Nc1cnc(Oc2ccc(F)cc2F)cn1` [Compound E253], the IC50 was 3.89 nM.

As for `CCN(C[C@@H](O)C(F)(F)F)C(=O)Nc1cnc(Oc2ccc(F)cc2C#N)cn1` [Compound E254], the IC50 was 30.9 nM.

Regarding `CN(C[C@@H](O)C(F)(F)F)C(=O)Nc1cnc(Oc2ccc(F)cc2F)cn1` [Compound E255], the IC50 is 13.2 nM.

As to `CCN(C[C@@H](O)C(F)(F)F)C(=O)Nc1cnc(Oc2ccc(C#N)cc2F)cn1` [Compound E256], the IC50 is 347 nM.

As to `CCN(C[C@@H](O)C(F)(F)F)C(=O)Nc1cnc(Oc2ccc(Cl)cc2F)cn1` [Compound E257], the IC50 is 14.8 nM.

Consider `CCN(C[C@@](C)(O)C(F)(F)F)C(=O)Nc1cnc(Oc2ccc(F)cc2F)cn1` [Compound E258], for which the IC50 was 1.55 nM.

With `CCN(C[C@@](C)(O)C(F)(F)F)C(=O)Nc1cnc(Oc2cc(F)ccc2F)cn1` [Compound E259], the IC50 was 1.7 nM.

Consider `CCN(C[C@@H](O)C(F)(F)F)C(=O)Nc1cnc(Oc2ccc(F)cc2Cl)cn1` [Compound E260], for which the IC50 is 4.07 nM.

Turning to `CCN(C[C@@H](OC)C(F)(F)F)C(=O)Nc1cnc(Oc2ccc(F)cc2F)cn1` [Compound E261], the IC50 was 380 nM.

With `CCN(C[C@@H](O)C(F)(F)F)C(=O)Nc1cnc(OCc2cccc(F)c2)cn1` [Compound E262], the IC50 is 676 nM.

On to `CCN(C[C@@H](O)C(F)(F)F)C(=O)Nc1cnc(Oc2ccc(C)cc2F)cn1` [Compound E263], for which the IC50 was 24.5 nM.

For `CCN(C[C@@H](O)C(F)(F)F)C(=O)Nc1cnc(Oc2ccc(F)cc2C(F)(F)F)cn1` [Compound E264], the IC50 is 295 nM.

On to `CC(C)C(=O)Nc1ccc(Cc2ccccc2F)cn1` [Compound E268], for which the IC50 is 501 nM.

Consider `CC1(C)C(C(=O)Nc2cc(C(=O)NCC(F)(F)F)ccn2)C1(C)C` [Compound E269, 2-[(2,2,3,3-tetramethylcyclopropanecarbonyl)amino]-N-(2,2,2-trifluoroethyl)pyridine-4-carboxamide], for which the IC50 was 3160 nM.

As for `CC1(C)C(C(=O)Nc2ccc(CN3CCCC3)cn2)C1(C)C` [Compound E270, 2,2,3,3-tetramethyl-N-[5-(pyrrolidin-1-ylmethyl)-2-pyridyl]cyclopropanecarboxamide], the IC50 is 5250 nM.

Consider `CC1(C)C(C(=O)Nc2ccc(-c3ncon3)cn2)C1(C)C` [Compound E271, 2,2,3,3-tetramethyl-N-[5-(1,2,4-oxadiazol-3-yl)-2-pyridyl]cyclopropanecarboxamide], for which the IC50 is 31.6 nM.

As for `Cc1nc(-c2ccc(NC(=O)C3C(C)(C)C3(C)C)nc2)no1` [Compound E272, 2,2,3,3-tetramethyl-N-[5-(5-methyl-1,2,4-oxadiazol-3-yl)-2-pyridyl]cyclopropanecarboxamide], the IC50 was 8.51 nM.

Take `CC1(C)C(C(=O)Nc2ccc(-c3cnco3)cn2)C1(C)C` [Compound E273, 2,2,3,3-tetramethyl-N-(5-oxazol-5-yl-2-pyridyl)cyclopropanecarboxamide]: the IC50 is 661 nM.

In the case of `CC1(C)C(C(=O)Nc2ccc(-c3ccno3)cn2)C1(C)C` [Compound E274, N-(5-isoxazol-5-yl-2-pyridyl)-2,2,3,3-tetramethyl-cyclopropanecarboxamide], the IC50 was 20.4 nM.
